Source: patent US4603134A, “Piperazine derivative and pharmaceutical composition containing the same” (Ferrer International, S.A., priority 1984, dated 1986)
pIC50: −log10 of the molar value.

Legend:
[1] = system: isolate of guinea-pig ileum; test: Anti-histamine activity in an isolate of guinea-pig ileum, suspended in a Tyrode bath at 32°-35° C.; conditions: for pIC50: Cavia porcellus, isolated guinea-pig ileum, Tyrode bath, 32°-35° C., read-out: anti-histamine activity, ED50
Experimental: The anti-histamine activity was tested in an isolate of guinea-pig ileum, suspended in a Tyrode bath at 32°-35° C. according to a protocol described by R. A. Turner (Screening Methods in Pharmacology, Academic Press, 1965, p. 43).

[2] = Activity on the blood stream (vasoactive, antiarrhythmic, hypotensor); conditions: no test described
[3] = system: isolate of guinea-pig ileum; conditions: background statement on the non-fluorine analog; cited from earlier work

| Compound | pIC50 [1] | antihistaminic effect compared with non-fluorine analog (in words) ([1]; versus non-fluorine analog (Spanish Pat. No. 514 340)) | activity on the blood stream (in words) [2] | anti-histaminic effect (in words) [3] |
| --- | --- | --- | --- | --- |
| Fc1ccc(C(c2ccc(F)cc2)N2CCN(CCCC3(c4ccccc4)OCCO3)CC2)cc1 [Example 1, 1-(4,4'-difluorobenzhydryl)-4-(2-phenyl-1,3-dioxolane-2-propyl)piperazine] | 6.82 | higher than that of its non-fluorine analog | strong activity on the blood stream |  |
| c1ccc(C(c2ccccc2)N2CCN(CCCC3(c4ccccc4)OCCO3)CC2)cc1 [Spanish Pat. 514 340, reference compound] | 6.46 |  |  | unsatisfactory |
